Reference: patent US5571833A, “Tryptamine analogues, their synthesis and their use as 5-HT1 -like or 5-HT2 receptor agonists” (SmithKline Beecham plc, priority 1991, dated 1996)
Counter-ions that a name gives are not always drawn.

Assays:
[1] = biological target: T1, 5-HT1-like receptor (dog saphenous vein) (Canis lupus familiaris, UniProt P79250); assay: 5-HT1-Like Receptor Screen, Dog Saphenous Vein (contraction of helicoids); type: cell-based
T1 construct: Helicoids of dog saphenous vein were set up; from tissue; host or cells: dog saphenous vein (helicoids)
Experimental: 5-HT1 -Like Receptor Screen
Helicoids of dog saphenous vein were set up at 37° C. in modified Krebs solution at a resting force of 10 mN. The solution also contained 1 μmol/l each of ketanserin, prazosin, atropine and mepyramine, 6 μmol/l cocaine and 200 μmol/l ascorbate. Nearly […] contractions were measured with force transducers on a polygraph. The tissues were exposed twice to 5-hydroxytryptamine (5-HT) 2 μmol/l followed by washes. A cumulative concentration-effect curve to the test compound was determined, followed by a curve to 5-HT in the presence of the highest used concentration of test compound. Contractions caused by the test compound were compared with those caused by 5-HT. The intrinsic activity of the test compound was calculated as the ratio of the maximum test compound-induced effect over the effect caused by 2 μmol/l 5-HT. The EC50 of the test compound was estimated from the corresponding effect curve. When appropriate equilibrium dissociation constants Kp were estimated by the method of Marano & Kaumann (1976, J. Pharmacol. Exp. Ther. 198, 518-525).

[2] = biological target: T2, rabbit basilar artery (5-HT1-like receptor) (Oryctolagus cuniculus, UniProt P49144); assay: Rabbit Basilar Artery (isometric tension of isolated ring segments); type: cell-based
T2 construct: from tissue; host or cells: rabbit basilar artery, endothelium removed (ring segments)
Experimental: Experiments were performed in intracranial arteries from rabbit isolated basilar artery in a similar method to one described previously (Parsons and Whalley, 1989. Eur J Pharmacol 174, 189-196.).
In brief, rabbits were killed by overdose with anaesthetic (sodium pentobarbitone). The whole brain was quickly removed and immersed in ice cold modified Kreb's solution and the basilar artery removed with the aid of a dissecting microscope. The Krebs solution was of the following composition (mM) Na^+ (120); K^+ (5); Ca^2+ (2.25); Mg^2+ (0.5); Cl^- (98.5); SO4^2^- (1); EDTA (0.04), equilibrated with 95% O2 /5% CO2. The endothelium was removed by a gentle rubbing of the lumen with a fine metal wire. Arteries were then cut into ring segments (ca 4-5 mm wide) and set up for recording of isometric tension in 50 ml tissue baths in modified Krebs solution with the additional supplement of (mM); […] (20); fumarate (10); pyruvate (5); L-glutamate (5) and glucose (10). The arteries were then placed under a resting force of 3-4 mN maintained at 37° C. and the solution bubbled with 95% O2 /5% CO2.
After tests for initial reactivity with 90 mM KCl depolarising solution and for lack of acetylcholine-induced relaxation of 5-HT ([…]) precontraction, cumulative concentration-effect curves ([…]) to 5-HT were constructed in the presence of ascorbate […], cocaine […], indomethacin […], ketanserin […] and prazosin […].
Following a 45-60 min wash period, cumulative concentration-effect curves to the test compounds or 5-HT (as a time match control) were constructed in the presence of ascorbate, indomethacin, cocaine, ketanserin and prazosin.

T2 sequence (P49144 whole entry): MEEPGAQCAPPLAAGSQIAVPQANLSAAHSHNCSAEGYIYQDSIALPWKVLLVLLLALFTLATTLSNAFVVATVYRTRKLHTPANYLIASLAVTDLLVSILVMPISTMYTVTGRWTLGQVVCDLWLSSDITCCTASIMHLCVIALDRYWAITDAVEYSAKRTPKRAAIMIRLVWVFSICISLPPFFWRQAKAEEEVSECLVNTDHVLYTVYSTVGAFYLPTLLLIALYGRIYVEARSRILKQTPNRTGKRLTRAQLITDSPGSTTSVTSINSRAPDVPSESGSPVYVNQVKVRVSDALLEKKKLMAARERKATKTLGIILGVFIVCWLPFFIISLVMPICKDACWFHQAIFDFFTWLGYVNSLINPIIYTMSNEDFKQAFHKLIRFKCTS
T1 sequence (P79250 whole entry): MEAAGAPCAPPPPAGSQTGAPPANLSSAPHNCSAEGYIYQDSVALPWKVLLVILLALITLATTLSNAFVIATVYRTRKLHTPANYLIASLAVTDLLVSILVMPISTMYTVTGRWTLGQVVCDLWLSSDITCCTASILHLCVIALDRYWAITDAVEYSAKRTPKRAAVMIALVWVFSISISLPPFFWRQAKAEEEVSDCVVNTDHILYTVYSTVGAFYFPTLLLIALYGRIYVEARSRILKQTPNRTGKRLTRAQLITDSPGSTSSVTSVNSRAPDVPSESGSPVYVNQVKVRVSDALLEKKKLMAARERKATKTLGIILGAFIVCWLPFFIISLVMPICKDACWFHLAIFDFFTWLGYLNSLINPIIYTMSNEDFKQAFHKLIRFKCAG

Compound	EC50 [1] [nM]	EC50 [2] [nM]
CCCOc1ccc2[nH]cc(CCNC)c2c1Cl [Example 13, 3-(2-Methylaminoethyl)-4-chloro-5-n-propoxyindole hemifumarate]	200 to 15000	
CCCOc1ccc2[nH]cc(CCN)c2c1C [Example 18b, 3-(2-aminoethyl)-4-methyl-5-n-propyloxyindole oxalate]		170 to 1100
CCCOc1ccc2[nH]cc(CCN)c2c1Br [Example 16, 3-(2-Aminoethyl)-4-bromo-5-n-propoxyindole oxalate]	200 to 15000	
NCCc1c[nH]c2ccc(OCc3ccccc3)c(Cl)c12 [Example 1, 3-(2-amino-ethyl)-4-chloro-5-benzyloxyindole hydrochloride]	200 to 15000	
CCCCOc1ccc2[nH]cc(CCN(C)C)c2c1Cl [Example 11, 3-(2-Dimethylaminoethyl)-4-chloro-5-n-butyloxyindole hemifumarate]	200 to 15000	170 to 1100
CCCOc1ccc2[nH]cc(CCN(C)C)c2c1I [Example 20, 3-(2-(Dimethylamino)ethyl)-4-iodo-5-n-propyloxy indole oxalate]		170 to 1100
CN(C)CCc1c[nH]c2ccc(OCC(C)(C)C)c(Cl)c12 [Example 22, 3-(2-(Dimethylamino)ethyl)-4-chloro-5-neopentyloxy indole oxalate]		170 to 1100
CCCOc1ccc2[nH]cc(CCN)c2c1Cl [Example 3(ii), 3-(2-aminoethyl)-4-chloro-5-n-propyloxyindole fumarate]	200 to 15000	
CCCNCCc1c[nH]c2ccc(OC)c(Cl)c12 [Example 8, 3-(2-n-Propylaminoethyl)-4-chloro-5-methoxyindole fumarate]	200 to 15000	
CC(C)Oc1ccc2[nH]cc(CCN)c2c1Cl [Example 15, 3-(2-Aminoethyl)-4-chloro-5-iso-propoxyindole fumarate]	200 to 15000	
CNCCc1c[nH]c2ccc(OC)c(Cl)c12 [Example 9, 3-(2-Methylaminoethyl)-4-chloro-5-methoxyindole hemifumarate]	200 to 15000	
CC(C)Oc1ccc2[nH]cc(CCN(C)C)c2c1Cl [Example 17, 3-(2-Dimethylaminoethyl)-4-chloro-5-isopropoxyindole oxalate]	200 to 15000	
CN(C)CCc1c[nH]c2ccc(O)c(Cl)c12 [Example 5, 3-(2-Dimethylaminoethyl)-4-chloro-5-hydroxyindole oxalate]	200 to 15000	170 to 1100
CCCOc1ccc2[nH]cc(CCN(C)C)c2c1Cl [3(i), 3-(2-Dimethylaminoethyl)-4-chloro-5-n-propyloxy-indole fumarate]	200 to 15000	170 to 1100
NCCc1c[nH]c2ccc(O)c(Cl)c12 [Example 2, 3-(2-Aminoethyl)-4-chloro-5-hydroxyindole fumarate]	200 to 15000	170 to 1100
COc1ccc2[nH]cc(CCN)c2c1Cl [Example 6(ii), 3-(2-aminoethyl)-4-chloro-5-methoxyindole fumarate]	200 to 15000	
COc1ccc2[nH]cc(CCN(C)C)c2c1Cl [6(i), 3-(2-Dimethylaminoethyl)-4-chloro-5-methoxyindole fumarate]	200 to 15000	170 to 1100
CN(C)CCc1c[nH]c2ccc(OCc3ccccc3)c(Cl)c12 [Example 4, 3-(2-Dimethylaminoethyl)-4-chloro-5-benzyloxyindole hydrochloride]		170 to 1100
COc1ccc2[nH]cc(CCN(C)C)c2c1Br [Example 7, 3-(2-Dimethylaminoethyl)-4-bromo-5-methoxyindole hemifumarate]	200 to 15000	
CCCOc1ccc2[nH]cc(CCN(C)CC)c2c1Cl [Example 19, 3-(2-(N-methyl-N-ethylamino)ethyl)-4-chloro-5-n-propyloxyindole oxalate]		170 to 1100
CCCOc1ccc2[nH]cc(CCN(C)C)c2c1Br [Example 14, 3-(2-Dimethylaminoethyl)-4-bromo-5-n-propoxyindole hemifumarate]	200 to 15000	170 to 1100
